Measurements taken from ChEMBL document CHEMBL4507297, “Data for DCP probe PF-04457845” (2021).

How the values were obtained:
[1] = target: Beta-2 adrenergic receptor (Homo sapiens) (UniProt P07550); conditions: Compound concentration 10.0 uM
[2] = target: Mitogen-activated protein kinase 7 (Homo sapiens) (UniProt Q13164); conditions: Compound concentration 1000.0 nM
[3] = target: Casein kinase I isoform epsilon (Homo sapiens) (UniProt P49674); conditions: Compound concentration 1000.0 nM
[4] = target: Cyclin-dependent kinase 7 (Homo sapiens) (UniProt P50613); conditions: Compound concentration 1000.0 nM
[5] = target: Discoidin domain-containing receptor 2 (Homo sapiens) (UniProt Q16832); conditions: Compound concentration 1000.0 nM
[6] = target: Serine/threonine-protein kinase MARK2 (Homo sapiens) (UniProt Q7KZI7); conditions: Compound concentration 1000.0 nM
[7] = target: Serine/threonine-protein kinase PLK4 (Homo sapiens) (UniProt O00444); conditions: Compound concentration 1000.0 nM
[8] = system: eIF-2-alpha kinase GCN2 (Homo sapiens), Q9P2K8 [S808G]; conditions: Compound concentration 1000.0 nM
[9] = target: Aurora kinase A (Homo sapiens) (UniProt O14965); conditions: Compound concentration 1000.0 nM
[10] = target: Tyrosine-protein kinase CSK (Homo sapiens) (UniProt P41240); conditions: Compound concentration 1000.0 nM
[11] = target: Citron Rho-interacting kinase (Homo sapiens) (UniProt O14578); conditions: Compound concentration 1000.0 nM
[12] = target: Dual specificity protein kinase CLK3 (Homo sapiens) (UniProt P49761); conditions: Compound concentration 1000.0 nM
Chain of Dual specificity protein kinase CLK3 (Homo sapiens) (P49761 whole entry, looked up): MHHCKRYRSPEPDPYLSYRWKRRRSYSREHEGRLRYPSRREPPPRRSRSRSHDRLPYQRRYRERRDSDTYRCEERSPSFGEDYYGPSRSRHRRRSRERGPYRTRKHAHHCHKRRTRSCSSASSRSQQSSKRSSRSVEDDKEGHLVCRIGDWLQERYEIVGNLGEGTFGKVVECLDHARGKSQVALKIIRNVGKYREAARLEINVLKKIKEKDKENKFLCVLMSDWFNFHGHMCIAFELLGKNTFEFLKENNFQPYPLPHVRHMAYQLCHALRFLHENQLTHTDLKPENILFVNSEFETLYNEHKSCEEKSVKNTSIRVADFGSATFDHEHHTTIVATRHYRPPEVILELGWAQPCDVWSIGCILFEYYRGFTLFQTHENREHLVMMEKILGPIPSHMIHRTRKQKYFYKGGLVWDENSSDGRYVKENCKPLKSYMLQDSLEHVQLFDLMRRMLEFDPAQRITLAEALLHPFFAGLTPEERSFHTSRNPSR

[13] = target: Aurora kinase B (Homo sapiens) (UniProt Q96GD4); conditions: Compound concentration 1000.0 nM
[14] = target: Serine/threonine-protein kinase TAO3 (Homo sapiens) (UniProt Q9H2K8); conditions: Compound concentration 1000.0 nM
[15] = target: Mu-type opioid receptor (Homo sapiens) (UniProt P35372); conditions: Compound concentration 10.0 uM
[16] = target: Receptor-interacting serine/threonine-protein kinase 1 (Homo sapiens) (UniProt Q13546); conditions: Compound concentration 1000.0 nM
[17] = target: Cyclin-G-associated kinase (Homo sapiens) (UniProt O14976); conditions: Compound concentration 1000.0 nM
[18] = target: Serine/threonine-protein kinase Nek11 (Homo sapiens) (UniProt Q8NG66); conditions: Compound concentration 1000.0 nM
[19] = target: Ephrin type-B receptor 1 (Homo sapiens) (UniProt P54762); conditions: Compound concentration 1000.0 nM
Chain of Ephrin type-B receptor 1 (Homo sapiens) (P54762 whole entry): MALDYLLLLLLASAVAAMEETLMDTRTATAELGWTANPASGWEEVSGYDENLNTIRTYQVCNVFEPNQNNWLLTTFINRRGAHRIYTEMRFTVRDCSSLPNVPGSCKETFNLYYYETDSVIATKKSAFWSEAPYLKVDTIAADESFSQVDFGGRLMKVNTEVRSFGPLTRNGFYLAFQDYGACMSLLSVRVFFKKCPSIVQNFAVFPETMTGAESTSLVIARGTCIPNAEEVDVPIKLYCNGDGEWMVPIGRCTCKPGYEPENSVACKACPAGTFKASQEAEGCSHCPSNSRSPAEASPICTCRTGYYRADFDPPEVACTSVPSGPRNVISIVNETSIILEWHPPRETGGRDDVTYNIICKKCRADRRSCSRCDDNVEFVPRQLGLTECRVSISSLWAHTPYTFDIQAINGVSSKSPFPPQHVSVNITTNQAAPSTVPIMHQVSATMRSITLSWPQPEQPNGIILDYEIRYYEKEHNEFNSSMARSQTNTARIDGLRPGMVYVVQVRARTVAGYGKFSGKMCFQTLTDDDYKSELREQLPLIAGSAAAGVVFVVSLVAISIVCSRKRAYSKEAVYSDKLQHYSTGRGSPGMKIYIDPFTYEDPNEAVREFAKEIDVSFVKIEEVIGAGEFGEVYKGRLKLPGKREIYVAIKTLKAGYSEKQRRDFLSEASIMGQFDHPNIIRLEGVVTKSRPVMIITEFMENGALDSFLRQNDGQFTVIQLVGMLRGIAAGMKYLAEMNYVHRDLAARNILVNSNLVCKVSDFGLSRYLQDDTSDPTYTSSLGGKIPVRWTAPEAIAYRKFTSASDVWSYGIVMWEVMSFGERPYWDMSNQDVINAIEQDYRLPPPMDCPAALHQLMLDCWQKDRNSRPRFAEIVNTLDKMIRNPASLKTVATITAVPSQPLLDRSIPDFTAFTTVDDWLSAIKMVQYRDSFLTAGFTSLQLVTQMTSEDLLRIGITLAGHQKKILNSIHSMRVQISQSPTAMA

[20] = target: Serine/threonine-protein kinase SIK1 (Homo sapiens) (UniProt P57059); conditions: Compound concentration 1000.0 nM
[21] = target: Cyclin-dependent kinase 11B (Homo sapiens) (UniProt P21127); conditions: Compound concentration 1000.0 nM
Chain of Cyclin-dependent kinase 11B (Homo sapiens) (P21127 whole entry): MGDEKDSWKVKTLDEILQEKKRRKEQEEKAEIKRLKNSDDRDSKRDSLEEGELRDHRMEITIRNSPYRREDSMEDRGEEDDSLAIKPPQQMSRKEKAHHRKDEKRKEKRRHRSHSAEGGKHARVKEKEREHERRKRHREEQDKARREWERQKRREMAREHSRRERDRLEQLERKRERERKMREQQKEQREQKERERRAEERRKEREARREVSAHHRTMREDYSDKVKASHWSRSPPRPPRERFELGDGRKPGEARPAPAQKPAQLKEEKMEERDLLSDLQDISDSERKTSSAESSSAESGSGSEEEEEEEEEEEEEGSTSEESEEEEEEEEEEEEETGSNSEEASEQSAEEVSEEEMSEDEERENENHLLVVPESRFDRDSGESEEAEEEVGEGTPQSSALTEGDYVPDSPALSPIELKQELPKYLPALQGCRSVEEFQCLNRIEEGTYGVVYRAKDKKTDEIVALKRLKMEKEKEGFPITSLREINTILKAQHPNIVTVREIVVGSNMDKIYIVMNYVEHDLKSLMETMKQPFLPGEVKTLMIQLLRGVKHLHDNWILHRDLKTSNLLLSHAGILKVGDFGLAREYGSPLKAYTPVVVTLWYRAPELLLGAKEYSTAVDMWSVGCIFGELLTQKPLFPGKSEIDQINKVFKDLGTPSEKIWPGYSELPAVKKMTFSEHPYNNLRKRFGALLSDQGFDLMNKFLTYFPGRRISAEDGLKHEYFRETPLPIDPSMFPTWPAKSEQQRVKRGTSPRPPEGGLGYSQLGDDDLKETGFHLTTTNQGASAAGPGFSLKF

[22] = target: Protein kinase C eta type (Homo sapiens) (UniProt P24723); conditions: Compound concentration 1000.0 nM
[23] = target: Serine/threonine-protein kinase SIK2 (Homo sapiens) (UniProt Q9H0K1); conditions: Compound concentration 1000.0 nM
[24] = target: Serine/threonine-protein kinase PLK2 (Homo sapiens) (UniProt Q9NYY3); conditions: Compound concentration 1000.0 nM
Chain of Serine/threonine-protein kinase PLK2 (Homo sapiens) (Q9NYY3 whole entry, looked up, canonical isoform): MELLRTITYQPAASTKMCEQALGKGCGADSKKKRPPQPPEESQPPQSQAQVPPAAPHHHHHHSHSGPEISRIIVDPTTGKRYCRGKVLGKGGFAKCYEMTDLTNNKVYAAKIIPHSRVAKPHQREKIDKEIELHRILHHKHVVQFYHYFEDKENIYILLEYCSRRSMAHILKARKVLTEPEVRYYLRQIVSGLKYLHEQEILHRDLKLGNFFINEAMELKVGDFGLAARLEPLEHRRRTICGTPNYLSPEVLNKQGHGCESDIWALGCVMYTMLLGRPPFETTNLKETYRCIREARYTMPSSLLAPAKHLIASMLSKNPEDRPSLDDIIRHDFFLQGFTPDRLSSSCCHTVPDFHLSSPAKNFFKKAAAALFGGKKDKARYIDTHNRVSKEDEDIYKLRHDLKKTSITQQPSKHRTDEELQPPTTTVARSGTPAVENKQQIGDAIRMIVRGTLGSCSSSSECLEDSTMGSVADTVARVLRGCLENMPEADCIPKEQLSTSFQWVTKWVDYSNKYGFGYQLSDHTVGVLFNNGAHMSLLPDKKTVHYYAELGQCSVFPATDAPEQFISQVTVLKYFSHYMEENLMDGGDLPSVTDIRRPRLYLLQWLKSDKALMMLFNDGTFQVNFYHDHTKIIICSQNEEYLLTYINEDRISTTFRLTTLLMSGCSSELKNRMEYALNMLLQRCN

[25] = system: Phosphatidylinositol 4,5-bisphosphate 3-kinase catalytic subunit alpha isoform (Homo sapiens), P42336 [Q546K]; conditions: Compound concentration 1000.0 nM
[26] = target: G protein-coupled receptor kinase 4 (Homo sapiens) (UniProt P32298); conditions: Compound concentration 1000.0 nM
[27] = target: Serine/threonine-protein kinase Nek5 (Homo sapiens) (UniProt Q6P3R8); conditions: Compound concentration 1000.0 nM
[28] = target: Receptor-interacting serine/threonine-protein kinase 4 (Homo sapiens) (UniProt P57078); conditions: Compound concentration 1000.0 nM
[29] = target: Ephrin type-A receptor 2 (Homo sapiens) (UniProt P29317); conditions: Compound concentration 1000.0 nM
Chain of Ephrin type-A receptor 2 (Homo sapiens) (P29317 whole entry): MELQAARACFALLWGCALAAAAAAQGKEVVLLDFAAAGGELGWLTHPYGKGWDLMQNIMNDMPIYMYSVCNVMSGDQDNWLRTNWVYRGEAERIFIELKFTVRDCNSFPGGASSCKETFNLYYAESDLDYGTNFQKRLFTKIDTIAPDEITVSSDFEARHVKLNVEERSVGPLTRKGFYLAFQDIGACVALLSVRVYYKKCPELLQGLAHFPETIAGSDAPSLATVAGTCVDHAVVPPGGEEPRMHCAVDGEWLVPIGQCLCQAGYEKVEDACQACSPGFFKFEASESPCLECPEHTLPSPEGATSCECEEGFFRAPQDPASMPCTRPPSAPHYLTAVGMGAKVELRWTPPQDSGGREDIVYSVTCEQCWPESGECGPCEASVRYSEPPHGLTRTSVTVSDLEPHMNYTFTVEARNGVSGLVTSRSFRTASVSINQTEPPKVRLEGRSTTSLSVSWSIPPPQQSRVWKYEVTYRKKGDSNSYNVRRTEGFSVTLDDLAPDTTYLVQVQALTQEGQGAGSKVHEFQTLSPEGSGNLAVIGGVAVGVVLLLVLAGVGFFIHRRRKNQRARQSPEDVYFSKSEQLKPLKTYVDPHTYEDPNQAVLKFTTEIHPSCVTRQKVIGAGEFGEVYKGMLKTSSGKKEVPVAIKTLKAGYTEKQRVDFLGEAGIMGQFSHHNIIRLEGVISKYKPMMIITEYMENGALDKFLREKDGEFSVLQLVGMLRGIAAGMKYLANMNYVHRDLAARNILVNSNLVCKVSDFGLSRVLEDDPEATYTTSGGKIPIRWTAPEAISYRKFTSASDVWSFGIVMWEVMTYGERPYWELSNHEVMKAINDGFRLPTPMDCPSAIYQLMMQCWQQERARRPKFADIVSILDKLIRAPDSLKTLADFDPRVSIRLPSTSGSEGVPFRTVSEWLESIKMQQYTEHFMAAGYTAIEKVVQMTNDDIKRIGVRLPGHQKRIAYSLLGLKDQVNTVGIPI

[30] = target: Serine/threonine-protein kinase D3 (Homo sapiens) (UniProt O94806); conditions: Compound concentration 1000.0 nM
[31] = target: Calcium-dependent protein kinase 1 (Plasmodium falciparum) (UniProt P62344); conditions: Compound concentration 1000.0 nM
[32] = target: Serine/threonine-protein kinase ULK1 (Homo sapiens) (UniProt O75385); conditions: Compound concentration 1000.0 nM
[33] = target: Cyclin-dependent kinase 13 (Homo sapiens) (UniProt Q14004); conditions: Compound concentration 1000.0 nM
[34] = target: Dual serine/threonine and tyrosine protein kinase (Homo sapiens) (UniProt Q6XUX3); conditions: Compound concentration 1000.0 nM
[35] = target: Phosphatidylinositol 5-phosphate 4-kinase type-2 beta (Homo sapiens) (UniProt P78356); conditions: Compound concentration 1000.0 nM
[36] = target: Cyclin-dependent kinase 19 (Homo sapiens) (UniProt Q9BWU1); conditions: Compound concentration 1000.0 nM
[37] = target: Serine/threonine-protein kinase 16 (Homo sapiens) (UniProt O75716); conditions: Compound concentration 1000.0 nM
Chain of Serine/threonine-protein kinase 16 (Homo sapiens) (O75716 whole entry): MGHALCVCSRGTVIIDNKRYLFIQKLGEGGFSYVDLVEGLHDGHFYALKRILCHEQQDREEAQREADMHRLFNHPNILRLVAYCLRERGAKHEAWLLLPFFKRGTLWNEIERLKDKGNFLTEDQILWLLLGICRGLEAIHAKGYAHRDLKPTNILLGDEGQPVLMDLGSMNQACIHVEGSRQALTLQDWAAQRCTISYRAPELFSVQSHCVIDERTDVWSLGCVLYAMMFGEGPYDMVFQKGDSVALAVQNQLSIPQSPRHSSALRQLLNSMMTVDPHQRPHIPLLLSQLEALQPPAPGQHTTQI

[38] = target: Protein kinase C theta type (Homo sapiens) (UniProt Q04759); conditions: Compound concentration 1000.0 nM
[39] = target: Protein kinase C epsilon type (Homo sapiens) (UniProt Q02156); conditions: Compound concentration 1000.0 nM
[40] = system: Epidermal growth factor receptor (Homo sapiens), P00533 [UNDEFINED MUTATION]; conditions: Compound concentration 1000.0 nM
[41] = target: Tyrosine-protein kinase receptor Tie-1 (Homo sapiens) (UniProt P35590); conditions: Compound concentration 1000.0 nM
[42] = system: Mast/stem cell growth factor receptor Kit (Homo sapiens), P10721 [V559D,V654A]; conditions: Compound concentration 1000.0 nM
[43] = target: Tyrosine-protein kinase Fer (Homo sapiens) (UniProt P16591); conditions: Compound concentration 1000.0 nM
Chain of Tyrosine-protein kinase Fer (Homo sapiens) (P16591 whole entry, looked up): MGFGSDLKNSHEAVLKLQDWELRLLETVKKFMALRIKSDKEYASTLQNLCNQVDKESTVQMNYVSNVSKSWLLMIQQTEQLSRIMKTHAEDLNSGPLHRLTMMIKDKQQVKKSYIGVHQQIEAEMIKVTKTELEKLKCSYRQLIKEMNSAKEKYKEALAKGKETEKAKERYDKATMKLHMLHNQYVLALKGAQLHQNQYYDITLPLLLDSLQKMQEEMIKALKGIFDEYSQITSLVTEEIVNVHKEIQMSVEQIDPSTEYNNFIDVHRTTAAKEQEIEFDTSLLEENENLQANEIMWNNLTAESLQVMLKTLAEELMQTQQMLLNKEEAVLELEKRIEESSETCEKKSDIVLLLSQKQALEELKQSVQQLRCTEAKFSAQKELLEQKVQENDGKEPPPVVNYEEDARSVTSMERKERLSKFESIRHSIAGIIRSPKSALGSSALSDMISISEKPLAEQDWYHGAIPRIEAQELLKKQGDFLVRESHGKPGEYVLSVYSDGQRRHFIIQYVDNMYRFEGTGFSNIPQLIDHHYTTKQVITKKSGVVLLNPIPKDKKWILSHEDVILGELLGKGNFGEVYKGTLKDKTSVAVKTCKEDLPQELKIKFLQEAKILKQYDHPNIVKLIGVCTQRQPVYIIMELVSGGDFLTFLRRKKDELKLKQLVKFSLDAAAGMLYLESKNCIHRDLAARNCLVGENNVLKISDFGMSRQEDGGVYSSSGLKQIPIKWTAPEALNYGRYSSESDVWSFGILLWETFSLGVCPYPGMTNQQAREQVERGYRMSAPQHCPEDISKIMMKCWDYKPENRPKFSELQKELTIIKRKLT

[44] = target: Rho-associated protein kinase 2 (Homo sapiens) (UniProt O75116); conditions: Compound concentration 1000.0 nM
[45] = target: Ephrin type-A receptor 6 (Homo sapiens) (UniProt Q9UF33); conditions: Compound concentration 1000.0 nM
[46] = target: Fibroblast growth factor receptor 4 (Homo sapiens) (UniProt P22455); conditions: Compound concentration 1000.0 nM

## O=C(Nc1cccnn1)N1CC(C/C=C/c2cncc(Oc3ccc(C(F)(F)F)cn3)n2)C1
[1]
  inhibition: 16.8%
[2]
  residual activity: 100%
[3]
  residual activity: 100%
[4]
  residual activity: 81%
[5]
  residual activity: 80%
[6]
  residual activity: 80%
[7]
  residual activity: 98%
[8]
  residual activity: 97%
[9]
  residual activity: 100%
[10]
  residual activity: 100%
[11]
  residual activity: 100%
[12]
  residual activity: 100%
[13]
  residual activity: 59%
[14]
  residual activity: 82%
[15]
  inhibition: 1.18%
[16]
  residual activity: 100%
[17]
  residual activity: 100%
[18]
  residual activity: 100%
[19]
  residual activity: 100%
[20]
  residual activity: 100%
[21]
  residual activity: 100%
[22]
  residual activity: 100%
[23]
  residual activity: 100%
[24]
  residual activity: 60%
[25]
  residual activity: 92%
[26]
  residual activity: 100%
[27]
  residual activity: 100%
[28]
  residual activity: 74%
[29]
  residual activity: 100%
[30]
  residual activity: 100%
[31]
  residual activity: 99%
[32]
  residual activity: 79%
[33]
  residual activity: 98%
[34]
  residual activity: 65%
[35]
  residual activity: 96%
[36]
  residual activity: 84%
[37]
  residual activity: 98%
[38]
  residual activity: 100%
[39]
  residual activity: 100%
[40]
  residual activity: 95%
[41]
  residual activity: 100%
[42]
  residual activity: 100%
[43]
  residual activity: 100%
[44]
  residual activity: 90%
[45]
  residual activity: 100%
[46]
  residual activity: 100%

## O=C(Nc1cccnn1)N1CCC(=Cc2cccc(Oc3ccc(C(F)(F)F)cn3)c2)CC1
[1]
  inhibition: 0.51%
[2]
  residual activity: 100%
[3]
  residual activity: 100%
[4]
  residual activity: 100%
[5]
  residual activity: 100%
[6]
  residual activity: 100%
[7]
  residual activity: 100%
[8]
  residual activity: 87%
[9]
  residual activity: 100%
[10]
  residual activity: 100%
[11]
  residual activity: 79%
[12]
  residual activity: 100%
[13]
  residual activity: 100%
[14]
  residual activity: 42%
[15]
  inhibition: 17.5%
[16]
  residual activity: 97%
[17]
  residual activity: 100%
[18]
  residual activity: 100%
[19]
  residual activity: 100%
[20]
  residual activity: 100%
[21]
  residual activity: 100%
[22]
  residual activity: 77%
[23]
  residual activity: 100%
[24]
  residual activity: 100%
[25]
  residual activity: 45%
[26]
  residual activity: 97%
[27]
  residual activity: 97%
[28]
  residual activity: 100%
[29]
  residual activity: 81%
[30]
  residual activity: 83%
[31]
  residual activity: 93%
[32]
  residual activity: 84%
[33]
  residual activity: 100%
[34]
  residual activity: 69%
[35]
  residual activity: 83%
[36]
  residual activity: 100%
[37]
  residual activity: 90%
[38]
  residual activity: 67%
[39]
  residual activity: 82%
[40]
  residual activity: 100%
[41]
  residual activity: 100%
[42]
  residual activity: 100%
[43]
  residual activity: 74%
[44]
  residual activity: 100%
[45]
  residual activity: 78%
[46]
  residual activity: 100%
